Test results taken from ChEMBL document CHEMBL1201862, “PubChem BioAssay data set” (2004).
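96-well plates; 48 h exposure; 5 concentrations. Endpoints by linear interpolation between flanking doses. Not reached: highest tested concentration assigned. GI50 = concentration required for 50% inhibition of growth.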 Active and inactive are the calls of the source. Cut-off read from the data, not from the text of the source: active = GI50 up to about 1.1 µM and inactive = higher.

Legend:
Test in all cases: growth of human tumour cells (NCI), 48 h
NCI-H226 = system: NCI-H226
NCI-H460 = system: NCI-H460
PC-3 = system: PC-3
UACC-257 = system: UACC-257
CCRF-CEM = system: CCRF-CEM
MCF7 = system: MCF7
BT-549 = system: BT-549
RPMI-8226 = system: RPMI-8226
SK-OV-3 = system: SK-OV-3
SW-620 = system: SW-620
SF-539 = system: SF-539
UO-31 = system: UO-31
HL-60 = system: HL-60
A498 = system: A498
OVCAR-5 = system: OVCAR-5
SF-295 = system: SF-295
HCT-116 = system: HCT-116
RXF 393 = system: RXF 393
HOP-62 = system: HOP-62
COLO 205 = system: COLO 205
HT-29 = system: HT-29
NCI/ADR-RES = system: NCI/ADR-RES
M14 = system: M14
SK-MEL-5 = system: SK-MEL-5
DU-145 = system: DU-145
SF-268 = system: SF-268
SR = system: SR
HOP-92 = system: HOP-92
MDA-N = system: MDA-N
ACHN = system: ACHN
SN12C = system: SN12C
A549 = system: A549
EKVX = system: EKVX
UACC-62 = system: UACC-62
KM12 = system: KM12
T47D = system: T47D
OVCAR-3 = system: OVCAR-3
Hs-578T = system: Hs-578T
SK-MEL-28 = system: SK-MEL-28
HCC 2998 = system: HCC 2998
HCT-15 = system: HCT-15
Malme-3M = system: Malme-3M
SNB-75 = system: SNB-75
SK-MEL-2 = system: SK-MEL-2
K562 = system: K562
U-251 = system: U-251
NCI-H23 = system: NCI-H23
SNB-19 = system: SNB-19
IGROV-1 = system: IGROV-1
NCI-H522 = system: NCI-H522
OVCAR-8 = system: OVCAR-8
TK-10 = system: TK-10
MDA-MB-435 = system: MDA-MB-435
786-0 = system: 786-0
CAKI-1 = system: CAKI-1
LOX IMVI = system: LOX IMVI
OVCAR-4 = system: OVCAR-4
MDA-MB-231 = system: MDA-MB-231
MOLT-4 = system: MOLT-4

With `Cc1c(C#N)c2nnn(-c3ccc([N+](=O)[O-])cc3)c(=O)n2c1-c1ccccc1` the GI50 (NCI-H226) was 12.6 µM (inactive), the GI50 (NCI-H460) was 5.86 µM (inactive) and the GI50 (PC-3) was 4.26 µM (inactive). For the same compound, the GI50 (UACC-257) was 16.9 µM (inactive), the GI50 (CCRF-CEM) was 5.98 µM (inactive) and the GI50 (MCF7) was 6.22 µM (inactive). For the same compound, the GI50 (BT-549) was 14.6 µM (inactive), the GI50 (RPMI-8226) was 3.13 µM (inactive) and the GI50 (SK-OV-3) was 24.3 µM (inactive). The GI50 (SW-620) was 10.2 µM (inactive), the GI50 (SF-539) was 14.6 µM (inactive) and the GI50 (UO-31) was 11.2 µM (inactive). For the same compound, the GI50 (HL-60) was 14.7 µM (inactive), the GI50 (A498) was 5.64 µM (inactive) and the GI50 (OVCAR-5) was 17.1 µM (inactive). The GI50 (SF-295) was 3.57 µM (inactive), the GI50 (HCT-116) was 6.62 µM (inactive) and the GI50 (RXF 393) was 16.5 µM (inactive). For the same compound, the GI50 (HOP-62) was 7.29 µM (inactive), the GI50 (COLO 205) was 10.4 µM (inactive) and the GI50 (HT-29) was 8.53 µM (inactive). For the same compound, the GI50 (NCI/ADR-RES) was 4.86 µM (inactive), the GI50 (M14) was 11.4 µM (inactive) and the GI50 (SK-MEL-5) was 12.6 µM (inactive). For the same compound, the GI50 (DU-145) was 9.44 µM (inactive), the GI50 (SF-268) was 14.7 µM (inactive) and the GI50 (SR) was 4.62 µM (inactive). The GI50 (HOP-92) was 8.05 µM (inactive), the GI50 (MDA-N) was 10.2 µM (inactive) and the GI50 (ACHN) was 4.95 µM (inactive). The GI50 (SN12C) was 11.5 µM (inactive), the GI50 (A549) was 10.1 µM (inactive) and the GI50 (EKVX) was 8.89 µM (inactive). For the same compound, the GI50 (UACC-62) was 6.19 µM (inactive), the GI50 (KM12) was 5.6 µM (inactive) and the GI50 (T47D) was 3.49 µM (inactive). The GI50 (OVCAR-3) was 3.03 µM (inactive), the GI50 (Hs-578T) was 25.5 µM (inactive) and the GI50 (SK-MEL-28) was 19.2 µM (inactive). The GI50 (HCC 2998) was 7.43 µM (inactive), the GI50 (HCT-15) was 6.15 µM and the GI50 (Malme-3M) was 14.7 µM (inactive). For the same compound, the GI50 (SNB-75) was 19.8 µM (inactive), the GI50 (SK-MEL-2) was 9.57 µM (inactive) and the GI50 (K562) was 3.37 µM (inactive). For the same compound, the GI50 (U-251) was 4.26 µM (inactive), the GI50 (NCI-H23) was 3.9 µM (inactive) and the GI50 (SNB-19) was 11.6 µM (inactive). The GI50 (IGROV-1) was 15.3 µM (inactive), the GI50 (NCI-H522) was 3.77 µM (inactive) and the GI50 (OVCAR-8) was 10.7 µM (inactive). The GI50 (TK-10) was 20 µM (inactive), the GI50 (MDA-MB-435) was 13 µM (inactive) and the GI50 (786-0) was 12.2 µM (inactive). The GI50 (CAKI-1) was 12.1 µM (inactive), the GI50 (LOX IMVI) was 10.3 µM (inactive) and the GI50 (OVCAR-4) was 8.04 µM (inactive). For the same compound, the GI50 (MDA-MB-231) was 17.3 µM (inactive).
`Cc1nc(-c2ccc(Cl)cc2)cn2c1nc1ccccc12` was tested, and the GI50 (NCI-H226) was > 100 µM (inactive), the GI50 (NCI-H460) was > 100 µM (inactive) and the GI50 (PC-3) was > 100 µM (inactive). For the same compound, the GI50 (UACC-257) was > 100 µM (inactive), the GI50 (CCRF-CEM) was 23.5 µM (inactive) and the GI50 (MCF7) was 0.647 µM (active). For the same compound, the GI50 (BT-549) was > 93.5 µM (inactive), the GI50 (RPMI-8226) was > 100 µM (inactive) and the GI50 (SK-OV-3) was > 100 µM (inactive). For the same compound, the GI50 (SW-620) was > 100 µM (inactive), the GI50 (SF-539) was > 61.4 µM (inactive) and the GI50 (HL-60) was > 31.6 µM (inactive). The GI50 (A498) was > 100 µM (inactive), the GI50 (OVCAR-5) was > 31 µM (inactive) and the GI50 (SF-295) was > 100 µM (inactive). The GI50 (HCT-116) was > 100 µM (inactive), the GI50 (RXF 393) was > 100 µM (inactive) and the GI50 (HOP-62) was > 100 µM (inactive). For the same compound, the GI50 (COLO 205) was > 43.3 µM (inactive), the GI50 (HT-29) was 99.1 µM (inactive) and the GI50 (NCI/ADR-RES) was > 86.3 µM (inactive). For the same compound, the GI50 (MOLT-4) was 26.3 µM (inactive), the GI50 (M14) was > 72.3 µM (inactive) and the GI50 (SK-MEL-5) was 5.14 µM (inactive). For the same compound, the GI50 (DU-145) was > 100 µM (inactive), the GI50 (SF-268) was > 100 µM (inactive) and the GI50 (SR) was 90.6 µM (inactive). For the same compound, the GI50 (HOP-92) was > 33.1 µM (inactive), the GI50 (MDA-N) was > 100 µM (inactive) and the GI50 (ACHN) was > 100 µM (inactive). For the same compound, the GI50 (SN12C) was > 100 µM (inactive), the GI50 (A549) was > 100 µM (inactive) and the GI50 (EKVX) was > 100 µM (inactive). The GI50 (UACC-62) was > 100 µM (inactive), the GI50 (KM12) was > 82.6 µM (inactive) and the GI50 (T47D) was 0.955 µM (active). For the same compound, the GI50 (OVCAR-3) was > 100 µM (inactive), the GI50 (Hs-578T) was > 100 µM (inactive) and the GI50 (SK-MEL-28) was > 100 µM (inactive). The GI50 (HCC 2998) was > 100 µM (inactive), the GI50 (HCT-15) was 19.4 µM and the GI50 (Malme-3M) was > 100 µM (inactive). For the same compound, the GI50 (SNB-75) was > 100 µM (inactive), the GI50 (SK-MEL-2) was > 100 µM (inactive) and the GI50 (K562) was > 72.3 µM (inactive). For the same compound, the GI50 (U-251) was > 100 µM (inactive), the GI50 (NCI-H23) was > 100 µM (inactive) and the GI50 (SNB-19) was > 100 µM (inactive). The GI50 (IGROV-1) was 11.1 µM (inactive), the GI50 (NCI-H522) was > 100 µM (inactive) and the GI50 (OVCAR-8) was > 100 µM (inactive). For the same compound, the GI50 (TK-10) was > 100 µM (inactive), the GI50 (MDA-MB-435) was > 100 µM (inactive) and the GI50 (786-0) was > 100 µM (inactive). The GI50 (CAKI-1) was > 100 µM (inactive), the GI50 (LOX IMVI) was > 100 µM (inactive) and the GI50 (OVCAR-4) was > 100 µM (inactive). The GI50 (MDA-MB-231) was > 100 µM (inactive).
With `COc1ccc2ccc3oc(=O)c(C)cc3c2c1` the GI50 (NCI-H226) was > 100 µM (inactive), the GI50 (NCI-H460) was > 100 µM (inactive) and the GI50 (PC-3) was > 100 µM (inactive). The GI50 (UACC-257) was > 100 µM (inactive), the GI50 (CCRF-CEM) was > 100 µM (inactive) and the GI50 (MCF7) was > 100 µM (inactive). The GI50 (BT-549) was > 100 µM (inactive), the GI50 (RPMI-8226) was > 100 µM (inactive) and the GI50 (SW-620) was > 100 µM (inactive). The GI50 (SF-539) was > 100 µM (inactive), the GI50 (UO-31) was 25.2 µM (inactive) and the GI50 (HL-60) was > 100 µM (inactive). For the same compound, the GI50 (A498) was > 100 µM (inactive), the GI50 (OVCAR-5) was > 100 µM (inactive) and the GI50 (SF-295) was > 100 µM (inactive). For the same compound, the GI50 (HCT-116) was > 100 µM (inactive), the GI50 (RXF 393) was > 100 µM (inactive) and the GI50 (HOP-62) was > 100 µM (inactive). The GI50 (COLO 205) was > 100 µM (inactive), the GI50 (HT-29) was > 100 µM (inactive) and the GI50 (NCI/ADR-RES) was > 100 µM (inactive). For the same compound, the GI50 (MOLT-4) was > 100 µM (inactive), the GI50 (M14) was > 100 µM (inactive) and the GI50 (SK-MEL-5) was > 100 µM (inactive). For the same compound, the GI50 (DU-145) was > 100 µM (inactive), the GI50 (SF-268) was > 100 µM (inactive) and the GI50 (SR) was > 100 µM (inactive). The GI50 (HOP-92) was > 10 µM (inactive), the GI50 (MDA-N) was > 100 µM (inactive) and the GI50 (ACHN) was > 100 µM (inactive). For the same compound, the GI50 (SN12C) was > 100 µM (inactive), the GI50 (A549) was > 100 µM (inactive) and the GI50 (EKVX) was 8.32 µM (inactive). The GI50 (UACC-62) was 10.9 µM (inactive), the GI50 (KM12) was > 100 µM (inactive) and the GI50 (T47D) was 43.3 µM (inactive). The GI50 (OVCAR-3) was > 100 µM (inactive), the GI50 (Hs-578T) was 78 µM (inactive) and the GI50 (SK-MEL-28) was > 100 µM (inactive). For the same compound, the GI50 (HCC 2998) was 39.6 µM (inactive), the GI50 (Malme-3M) was > 100 µM (inactive) and the GI50 (SNB-75) was 28.8 µM (inactive). For the same compound, the GI50 (SK-MEL-2) was > 100 µM (inactive), the GI50 (K562) was > 100 µM (inactive) and the GI50 (U-251) was > 100 µM (inactive). The GI50 (NCI-H23) was > 100 µM (inactive), the GI50 (SNB-19) was > 100 µM (inactive) and the GI50 (IGROV-1) was > 100 µM (inactive). For the same compound, the GI50 (NCI-H522) was > 100 µM (inactive), the GI50 (OVCAR-8) was > 100 µM (inactive) and the GI50 (TK-10) was > 100 µM (inactive). For the same compound, the GI50 (MDA-MB-435) was > 100 µM (inactive), the GI50 (786-0) was > 100 µM (inactive) and the GI50 (CAKI-1) was > 100 µM (inactive). For the same compound, the GI50 (LOX IMVI) was > 100 µM (inactive), the GI50 (OVCAR-4) was > 100 µM (inactive) and the GI50 (MDA-MB-231) was 33.9 µM (inactive).
